We go through 15 compounds from patent US20230041738A1, “1H-PYRAZOLO[4,3-d]PYRIMIDINE COMPOUNDS AS TOLL-LIKE RECEPTOR 7 (TLR7) AGONISTS” (BRISTOL-MYERS SQUIBB COMPANY, priority 2020, published 2023).

One assay relates to CD69. In words: Induction of CD69 in human whole blood (hWB). Format: cell-based. As to conditions: 17 hrs at 37 C, CD69 surface staining, 100% set to 1 uM resiquimod, average where performed multiple times. As to the method:
The induction of Type I interferon (IFN) MX-1 genes and the B-cell activation marker CD69 are downstream events that occur upon activation of the TLR7 pathway. The following is a human whole blood assay that measures their induction in response to a TLR7 agonist.
Heparinized human whole blood was harvested from human subjects and treated with test TLR7 agonist compounds at 1 mM. The blood was diluted with RPMI 1640 media and Echo was used to predot 10 nL per well giving a final concentration of 1 uM (10 nL in 10 uL of blood). After mixing on a shaker for 30 sec, the plates were covered and placed in a 37° C. chamber for o/n=17 hrs. Fixing/lysis buffer was prepared (5×→1× in H2O, warm at 37° C.; Cat #BD 558049) and kept the perm buffer (on ice) for later use.
For surface markers staining (CD69): prepared surface Abs: 0.045 ul hCD14-FITC (ThermoFisher Cat #MHCD1401)+0.6 ul hCD19-ef450 (ThermoFisher Cat #48-0198-42)+1.5 ul hCD69-PE (cat #BD555531)+0.855 ul FACS buffer. Added 3 ul/well, spin1000 rpm for 1 min and mixed on shaker for 30 sec, put on ice for 30 mins. Stop stimulation after 30 min with 70 uL of prewarmed 1× fix/lysis buffer and use Feliex mate to resuspend (15 times, change tips for each plate) and incubate at 37C for 10 min.
Centrifuge at 2000 rpm for 5 min aspirate with HCS plate washer, mix on shaker for 30 sec and then wash with 70 uL in dPBS and pelleted 2× s (2000 rpm for 5 min) and 50 ul wash in FACS buffer pelleted 1×s(2000 rpm for 5 min). Mix on shaker for 30 sec. For Intracellular markers staining (MX-1): Add 50 ul of BD Perm buffer III and mix on shaker for 30 sec. Incubate on ice for 30 min (in the dark). Wash with 50 uL of FACS buffer 2× (spin @2300 rpm×5 min after perm) followed by mixing on shaker for 30 sec. Resuspended in 20 ul of FACS buffer containing MX1 antibody ( )(4812)-Alexa 647: Novus Biologicals #NBP2-43704AF647) 20 ul FACS bf+0.8 ul hlgG+0.04 ul MX-1. Spin 1000 rpm for 1 min, mix on shaker for 30se and the samples were incubated at RT in the dark for 45 min followed by washing 2× FACS buffer (spin @2300 rpm×5 min after perm). Resuspend 20 ul (35 uL total per well) of FACS buffer and cover with foil and place in 4° C. to read the following day. Plates were read on iQuePlus. The results were loaded into toolset and IC50 curves are generated in curve master. The y-axis 100% is set to 1 uM of resiquimod.

For the next assay, the target named is T1, human TLR7 (Homo sapiens, UniProt Q9NYK1).
T1 construct: host or cells: HEK-Blue TLR7 cells (engineered human embryonic kidney cells)
T1 sequence (Q9NYK1 27-1049): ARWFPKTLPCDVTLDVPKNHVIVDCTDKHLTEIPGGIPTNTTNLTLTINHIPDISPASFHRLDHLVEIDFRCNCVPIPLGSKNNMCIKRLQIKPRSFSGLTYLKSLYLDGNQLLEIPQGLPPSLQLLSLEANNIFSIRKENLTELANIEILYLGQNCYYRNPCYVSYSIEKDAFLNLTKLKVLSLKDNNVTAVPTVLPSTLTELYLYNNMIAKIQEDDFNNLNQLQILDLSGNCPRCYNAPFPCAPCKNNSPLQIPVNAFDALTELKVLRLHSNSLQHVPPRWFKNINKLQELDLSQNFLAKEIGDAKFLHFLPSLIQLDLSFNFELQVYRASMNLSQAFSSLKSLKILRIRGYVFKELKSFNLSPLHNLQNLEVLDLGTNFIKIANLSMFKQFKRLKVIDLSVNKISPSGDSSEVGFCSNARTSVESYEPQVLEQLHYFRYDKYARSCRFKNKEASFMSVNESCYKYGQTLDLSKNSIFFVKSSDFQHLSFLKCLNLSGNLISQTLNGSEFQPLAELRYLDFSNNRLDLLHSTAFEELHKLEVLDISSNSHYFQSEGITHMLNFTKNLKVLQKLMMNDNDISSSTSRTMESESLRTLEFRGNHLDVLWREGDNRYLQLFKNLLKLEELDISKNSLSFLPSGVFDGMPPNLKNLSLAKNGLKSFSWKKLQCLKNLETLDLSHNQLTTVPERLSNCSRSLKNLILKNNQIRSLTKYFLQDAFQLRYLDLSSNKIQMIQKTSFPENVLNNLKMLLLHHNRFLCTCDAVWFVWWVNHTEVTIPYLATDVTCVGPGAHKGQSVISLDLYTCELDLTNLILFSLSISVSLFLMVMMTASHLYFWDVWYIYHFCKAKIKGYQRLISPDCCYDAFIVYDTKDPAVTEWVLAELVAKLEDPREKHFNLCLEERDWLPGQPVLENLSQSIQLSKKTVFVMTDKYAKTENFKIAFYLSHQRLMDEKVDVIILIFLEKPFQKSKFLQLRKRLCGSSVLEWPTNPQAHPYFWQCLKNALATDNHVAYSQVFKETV
In words: Human TLR7 agonist activity assay (hTLR7 reporter, HEK-Blue TLR7 cells, SEAP). As to conditions: HEK-Blue TLR7 cells with SEAP reporter, 18 h treatment; average where assay performed multiple times. Format: cell-based. As to the method: This procedure describes a method for assaying human TLR7 (hTLR7) agonist activity of the compounds disclosed in this specification.
HEK-Blue™ TLR7 cells were added to each well of a 384-well tissue-culture plate (15,000 cells per well) and incubated 16-18 h at 37° C., 5% CO2. Compounds (100 nl) were dispensed into wells containing the HEK-Blue™ TLR cells and the treated cells were incubated at 37° C., 5% CO2. After 18 h treatment ten microliters of freshly-prepared Quanti-Blue™ reagent (Invivogen) was added to each well, incubated for 30 min (37° C., 5% CO2) and SEAP levels measured using an Envision plate reader (OD=620 nm). The half maximal effective concentration values (EC50; compound concentration which induced a response halfway between the assay baseline and maximum) were calculated.

A word on the EC50: it is the midpoint of the concentration-response curve. Lower therefore signals an effect from little substance.

In the case of `CCCCNc1nc(N)nc2cnn(Cc3ccc(C(=O)N4C[C@H]5C[C@@H]4CN5C)cc3OC)c12` [Compound 110, N7-butyl-1-({2-methoxy-4-[(1R,4R)-5-methyl-2,5-diazabicyclo-[2.2.1]heptane-2-carbonyl]-phenyl}methyl)-1H-pyrazolo[4,3-d]pyrimidine-5,7-diamine], the figures for the EC50 with CD69 and at human TLR7 were 2 nM and 378 nM, respectively.
For `CCCCNc1nc(N)nc2cnn(Cc3ccc(CN4C[C@H]5CN(C)C[C@H]5C4)cc3OC(F)F)c12` [Compound 117, 1-[(4-{[(3aR,6aS)-5-methyl-octa-hdropyrrolo[3,4-c]pyrrol-2-yl]methyl}-2-(difluoromethoxy)phenyl)-methyl]-N7-butyl-1H-pyrazolo[4,3-d]pyrimidine-5,7-diamine], the EC50 worked out at 16.2 nM with CD69 and 92.4 nM on human TLR7.
The like results for `CCCCNc1nc(N)nc2cnn(Cc3ccc(CN4C[C@H]5C[C@@H]4CN5C)cc3OC)c12` [Compound 105, N7-butyl-1-[(2-methoxy-4-{[(1R,4R)-5-methyl-2,5-diaza-bicyclo[2.2.1]heptan-2-yl]methyl}-phenyl)methyl]-1H-pyrazolo[4,3-d]pyrimidine-5,7-diamine] were, in that order, 4.2 nM and 20.7 nM.
For `CCC[C@@H](CCO)Nc1nc(N)nc2cnn(Cc3ccc(C(=O)N4C[C@H]5C[C@@H]4CN5C)cc3OC)c12` [Compound 119, (3S)-3-{[5-amino-1-({2-methoxy-4-[(1R,4R)-5-methyl-2,5-diazabicyclo [2.2.1]heptane-2-carbonyl]phenyl}methyl)-1H-pyrazolo[4,3-d]pyrimidin-7-yl]amino}hexan-1-ol], in that order: 18.1 nM and 106 nM.
For `CCCCNc1nc(N)nc2cnn(Cc3ccc(C(=O)N4C[C@H]5CN(C)C[C@H]5C4)cc3OC)c12` [Compound 111, 1-({4-[(3aR,6aS)-5-methyl-octahydropyrrolo[3,4-c]pyrrole-2-carbonyl]-2-methoxyphenyl}-methyl)-N7-butyl-1H-pyrazolo[4,3-d]pyrimidine-5,7-diamine], in that order: 11.1 nM and 16.4 nM.
For the compound `CCCCNc1nc(N)nc2cnn(Cc3ccc(C(=O)N4C[C@H]5CNC[C@H]5C4)cc3OC(F)F)c12` [Compound 123, 1-({4-[(3aR,6aS)-octahydro-pyrrolo[3,4-c]pyrrole-2-carbonyl]-2-(difluoromethoxy)phenyl}methyl)-N7-butyl-1H-pyrazolo[4,3-d]pyrimidine-5,7-diamine], the EC50 worked out at 482 nM with CD69 and 2240 nM on human TLR7.
`CCCCNc1nc(N)nc2cnn(Cc3ccc(CN4C[C@H]5CNC[C@H]5C4)cc3OC)c12` [Compound 143, 1-[(4-{[(3aR/6aS)-octahydropyrrolo [3,4-c]pyrrol-2-yl]methyl}-2-methoxyphenyl)methyl]-N7-butyl-1H-pyrazolo[4,3-d]pyrimidine-5,7-diamine]: the figures for the EC50 in the assay with CD69 and on human TLR7 were 1.29 nM and 62.2 nM, respectively.
The like results for `CCC[C@@H](CCO)Nc1nc(N)nc2cnn(Cc3cnc(CN4C[C@H]5C[C@@H]4CN5CCO)cc3OC)c12` [Compound 140] were, in that order, 31.6 nM and 716 nM.
For `COc1cc(CN2C[C@@H]3C[C@H]2CN3C)ccc1Cn1ncc2nc(N)nc(NCc3noc(C)n3)c21` [Compound 130, 1-[(2-methoxy-4-{[(1S,4S)-5-methyl-2,5-diazabicyclo[2.2.1]-heptan-2-yl]methyl}phenyl)methyl]-N7-[(5-methyl-1,2,4-oxa-diazol-3-yl)methyl]-1H-pyrazolo[4,3-d]pyrimidine-5,7-diamine], in that order: 74.3 nM and 135 nM.
`CCCCNc1nc(N)nc2cnn(Cc3ccc(CN4C[C@H]5CN(CCO)C[C@H]5C4)cc3OC)c12` [Compound 139, 2-[(3aR,6aS)-5-[(4-{[5-amino-7-(butylamino)-1H-pyrazolo[4,3-d]pyrimidin-1-yl]methyl}-3-methoxy-pheny)methyl]-octahydropyrrolo[3,4-c]pyrrol-2-yl]ethan-1-ol]: the EC50 with CD69 was found to be 1.9 nM; at human TLR7, 19.6 nM.
The like results for `CCCCNc1nc(N)nc2cnn(Cc3ccc(C(=O)N4C[C@H]5CN(C)C[C@H]5C4)cc3OC(F)F)c12` [Compound 116, 1-({4-[(3aR,6aS)-5-methyl-octa-hydropyrrolo[3,4-c]pyrrole-2-carbonyl]-2-(difluoromethoxy)phenyl}-methyl)-N7-butyl-1H-pyrazolo[4,3-d]pyrimidine-5,7-diamine] were, in that order, 14.2 nM and 172 nM.
Regarding `COc1cc(CN2C[C@@H]3C[C@H]2CN3)ccc1Cn1ncc2nc(N)nc(NCc3noc(C)n3)c21` [Compound 129, 1-[(4-{[(1S,4S)-2,5-diaza-bicyclo[2.2.1]heptan-2-yl]methyl}-2-methoxyphenyl)methyl]-N7-[(5-methyl-1,2,4-oxadiazol-3-yl)methyl]-1H-pyrazolo[4,3-d]pyri-midine-5,7-diamine], the EC50 in the assay with CD69 was 804 nM; at human TLR7, 323 nM.
Regarding `CCC[C@@H](CCO)Nc1nc(N)nc2cnn(Cc3ccc(C(=O)N4C[C@H]5CNC[C@H]5C4)cc3OC)c12` [Compound 120], the values for the EC50 with CD69 and at human TLR7 were 138 nM and 173 nM, respectively.
For the compound `CCC[C@@H](CCO)Nc1nc(N)nc2c(C)nn(Cc3ccc(CN4C[C@H]5C[C@@H]4CN5CCO)cc3OC)c12` [Compound 141, (3S)-3-({5-amino-1-[(4-{[(1R,4R)-5-(2-hydroxyethyl)-2,5-diazabicyclo [2.2.1]heptan-2-yl]methyl}-2-methoxyphenyl)methyl]-3-methyl-1H-pyrazolo[4,3-d]pyrimidin-7-yl}amino)hexan-1-ol], the EC50 is 10.6 nM in the assay on CD69 and 59.9 nM on human TLR7.
In the case of `CCC[C@@H](CCO)Nc1nc(N)nc2cnn(Cc3ccc(CN4C[C@H]5CN(C)C[C@H]5C4)cc3OC)c12` [Compound 122, (3S)-3-({1-[(4-{[(3aR,6aS)-5-methyl-octahydropyrrolo[3,4-c]pyrrol-2-yl]methyl}-2-methoxyphenyl)methyl]-5-amino-1H-pyrazolo[4,3-d]pyrimidin-7-yl}amino)hexan-1-ol], the EC50 in the assay with CD69 is 0.7 nM; at human TLR7 it was 7.2 nM.
